Among the data in patent publication US11019816B2, “Composition comprising cinmethylin-containing microparticles and a further herbicide” (BASF Agro B.V., priority 2017, dated 2021) are herbicidal activity and solubility in water values, retold here.

Data set [1] concerns Alopecurus myosuroides. Briefly: Field trial, post-emergence herbicidal activity. In kind it is in vivo. The following applies: ALOMY, 31 DAT.
Procedure: (§1) Winter wheat was seeded in different soils ranging from sandy loam to clay loam soil containing 2.1-5.5% of organic matter.
(§2) For the post emergence treatment, the plants were first grown up to the 2 leaf stage (BBCH 12). Here, the herbicidal compositions were suspended or emulsified in water as distribution medium and sprayed using finely distributing nozzels.
(§3) The herbicidal activity for the individual herbicidal compositions (solo and mixture applications) was assessed 31 days after treatment (DAT).
(§4) The evaluation for the damage on winter wheat and undesired weeds caused by the tested compositions was carried out using a scale from 0 to 100%, compared to the untreated control plants. Here, 0 means no damage and 100 means complete destruction of the plants.
For data set [2] the following is noted: at 20° C.; cited from earlier work.
The subject of data set [3] is Matricaria inodora. Briefly: Field trial, post-emergence herbicidal activity. The following applies: MATIN, 31 DAT. In kind it is in vivo.
Procedure: as §1, §2, §3, §4
The test system of data set [4] is Triticum aestivum. As to the kind of experiment: Field trial, phytotoxicity (damage) on winter wheat. The note with it: TRZAW (winter wheat, crop damage), post-emergence, 31 DAT.
Procedure: as §2
Cinmethylin was used in the solo application as an emulsion concentrate with an active ingredient concentration of 750 g/l.
The mixture of cinmethylin and picolinafen as an emulsifiable concentrate was prepared from cinmethylin as an emulsifiable concentrate (EC) and picolinafen as a water dispersable granule (WG) having an active ingredient concentration of 500 g/l and 50 g/l, respectively.
as §3, §4
The subject of data set [5] is Lamium amplexicaule. Briefly: Field trial, post-emergence herbicidal activity. In kind it is in vivo. The following applies: LAMAM, 31 DAT.
Procedure: as §1, §2, §3, §4
The test system of data set [6] is Capsella bursa-pastoris. Briefly: Field trial, post-emergence herbicidal activity. The following applies: CAPBP, 31 DAT. In kind it is in vivo.
Procedure: as §1, §2, §3, §4
The test system of data set [7] is Raphanus raphanistrum. Briefly: Field trial, post-emergence herbicidal activity. The note with it: RAPRA, 31 DAT. The format is in vivo.
Procedure: as §1, §2, §3, §4

In brackets after ≈: the same amount, converted by molar mass.

In the case of `Cc1ccccc1CO[C@@H]1C[C@@]2(C(C)C)CC[C@]1(C)O2` (racemic) [cinmethylin, (±)-2-exo-(2-methylbenzyloxy)-1-methyl-4-isopropyl-7-oxabicyclo[2.2.1]heptane], the herbicidal activity in data set [1] (use rate 500 g ai/ha) is 100%; in data set [3] (use rate 500 g ai/ha), 62%; in data set [4] (use rate 500 g ai/ha), 0%; in data set [4] (use rate 1000 g ai/ha), 0%; in data set [5] (use rate 500 g ai/ha) it was 53%; in data set [6] (use rate 500 g ai/ha), 65%. The same compound came in with a herbicidal activity in data set [7] (use rate 500 g ai/ha) of 10%. The solubility in water in data set [2] is 63 µg/mL (≈ 230 µM).

As for `O=C(Nc1ccc(F)cc1)c1cccc(Oc2cccc(C(F)(F)F)c2)n1` [picolinafen (WG), picolinafen], the herbicidal activity in data set [1] (use rate 50 g ai/ha) stood at 0%; in data set [3] (use rate 50 g ai/ha), 69%; in data set [4] (use rate 50 g ai/ha), 0%; in data set [4] (use rate 100 g ai/ha), 0%; in data set [5] (use rate 50 g ai/ha), 94%; in data set [6] (use rate 50 g ai/ha), 96%. The herbicidal activity in data set [7] (use rate 50 g ai/ha) is 98%.
